{"source": "paper PMC9127750", "about": "“Structure-based design of CDC42 effector interaction inhibitors for the treatment of cancer” (Cell reports, 2022)", "system": "WM3248 melanoma cells, 486 antibodies", "test": "Reverse phase protein arrays (RPPA)", "format": "cell-based, Human", "description": "Pellets were snap frozen in liquid nitrogen and shipped to MD Anderson Cancer Center core RPPA facility for RPPA analysis (Table S5). Three biological replicates for each sample were generated.\nNomenclatures on the RPPA heatmaps: name_of_antibody.species_of_antibody.status_of_antibody. V - antibody validated; C - validation of antibody in progress; Q - antibody nonspecific; E – under evaluation; antibodies raised in M - mouse, G - goat, R - rabbit, or T - rat.", "key": {"[1]": {"details": "level 20 normalized to 0, single replicates"}}, "note": "“And” between values parts separate entries of the source, which are not always exact repeats. Equal values may be shown once."}
{"smiles": "CN(C)c1cccc(Nc2cc(-c3ccccc3)nc(C3CCNCC3)n2)c1", "note": "[ARN22089, N1,N1-dimethyl-N3-(6-phenyl-2-(piperidin-4-yl)pyrimidin-4-yl)benzene-1,3-diamine]", "values": [{"measurement": "VHL.EPPK1.M.C Norm_20_1 to Norm_20_3", "setting": "[1]", "value": "0.500 and 1.345 and 0.800"}, {"measurement": "VHL.R.C Norm_20_1 to Norm_20_3", "setting": "[1]", "value": "0.916 and 0.962 and 0.841"}, {"measurement": "Vinculin.M.V Norm_20_1 to Norm_20_3", "setting": "[1]", "value": "0.883 and 0.898 and 1.015"}, {"measurement": "WIPI1.R.C Norm_20_1 to Norm_20_3", "setting": "[1]", "value": "1.294 and 1.483 and 1.388"}, {"measurement": "WIPI2.R.C Norm_20_1 to Norm_20_3", "setting": "[1]", "value": "1.222 and 0.891 and 1.265"}, {"measurement": "WTAP.R.V Norm_20_1 to Norm_20_3", "setting": "[1]", "value": "1.313 and 1.590 and 0.930"}, {"measurement": "Wee1.R.C Norm_20_1 to Norm_20_3", "setting": "[1]", "value": "0.789 and 0.790 and 1.159"}, {"measurement": "Wee1_pS642.R.C Norm_20_1 to Norm_20_3", "setting": "[1]", "value": "0.904 and 0.831 and 1.081"}, {"measurement": "XBP.1.G.C Norm_20_1 to Norm_20_3", "setting": "[1]", "value": "0.929 and 1.289"}, {"measurement": "XIAP.R.C Norm_20_1 to Norm_20_3", "setting": "[1]", "value": "0.985 and 0.834 and 1.059"}, {"measurement": "XPA.M.V Norm_20_1 to Norm_20_3", "setting": "[1]", "value": "0.800 and 0.980 and 0.934"}, {"measurement": "XPF.R.C Norm_20_1 to Norm_20_3", "setting": "[1]", "value": "0.837 and 0.882"}, {"measurement": "XRCC1.R.C Norm_20_1 to Norm_20_3", "setting": "[1]", "value": "0.881 and 1.133"}, {"measurement": "YAP.R.C Norm_20_1 to Norm_20_3", "setting": "[1]", "value": "0.917 and 1.135 and 0.817"}, {"measurement": "YAP_pS127.R.V Norm_20_1 to Norm_20_3", "setting": "[1]", "value": "1.228 and 0.736"}, {"measurement": "YB1_pS102.R.V Norm_20_1 to Norm_20_3", "setting": "[1]", "value": 0.867}, {"measurement": "YES1.R.V Norm_20_1 to Norm_20_3", "setting": "[1]", "value": "0.976 and 0.995"}, {"measurement": "YTHDF2.R.V Norm_20_1 to Norm_20_3", "setting": "[1]", "value": "1.165 and 1.218 and 1.246"}, {"measurement": "YTHDF3.R.C Norm_20_1 to Norm_20_3", "setting": "[1]", "value": "1.003 and 1.082 and 1.010"}, {"measurement": "ZAP.70.R.V Norm_20_1 to Norm_20_3", "setting": "[1]", "value": "0.955 and 0.894 and 0.817"}, {"measurement": "ZEB1.R.V Norm_20_1 to Norm_20_3", "setting": "[1]", "value": "0.925 and 1.022 and 0.936"}, {"measurement": "HLA.DQA1.R.V Norm_20 Average", "setting": "level 20 vs 0", "value": 0.977}, {"measurement": "HMHA1.R.V Norm_20 Average", "setting": "level 20 vs 0", "value": 1.016}, {"measurement": "HNRNPK.R.V Norm_20 Average", "setting": "level 20 vs 0", "value": 0.991}, {"measurement": "HSP27.M.C Norm_20 Average", "setting": "level 20 vs 0", "value": 0.811}, {"measurement": "HSP27_pS82.R.V Norm_20 Average", "setting": "level 20 vs 0", "value": 0.961}, {"measurement": "HSP60.R.V Norm_20 Average", "setting": "level 20 vs 0", "value": 0.996}, {"measurement": "HSP70.R.C Norm_20 Average", "setting": "level 20 vs 0", "value": 1.202}, {"measurement": "Hexokinase.I.R.C Norm_20 Average", "setting": "level 20 vs 0", "value": 1.201}, {"measurement": "Hif.1αR.C Norm_20 Average", "setting": "level 20 vs 0", "value": 1.051}, {"measurement": "Histone.H3.R.V Norm_20 Average", "setting": "level 20 vs 0", "value": 5.937}, {"measurement": "Histone.H3_pS10.R.V Norm_20 Average", "setting": "level 20 vs 0", "value": 2.467}, {"measurement": "IDO.R.C Norm_20 Average", "setting": "level 20 vs 0", "value": 0.964}, {"measurement": "IGF1R_pY1135_Y1136.R.V Norm_20 Average", "setting": "level 20 vs 0", "value": 0.962}, {"measurement": "IGFBP3.M.V Norm_20 Average", "setting": "level 20 vs 0", "value": 0.905}, {"measurement": "IL.6.R.C Norm_20 Average", "setting": "level 20 vs 0", "value": 0.971}, {"measurement": "IMP3.R.C Norm_20 Average", "setting": "level 20 vs 0", "value": 0.967}, {"measurement": "INPP4b.R.C Norm_20 Average", "setting": "level 20 vs 0", "value": 0.976}, {"measurement": "IRF.1.R.V Norm_20 Average", "setting": "level 20 vs 0", "value": 0.958}, {"measurement": "IRF.3.R.V Norm_20 Average", "setting": "level 20 vs 0", "value": 0.882}, {"measurement": "IRS1.R.V Norm_20 Average", "setting": "level 20 vs 0", "value": 1.050}, {"measurement": "IRS2.R.C Norm_20 Average", "setting": "level 20 vs 0", "value": 1.223}, {"measurement": "JAB1.M.C Norm_20 Average", "setting": "level 20 vs 0", "value": 0.970}, {"measurement": "JNK2.R.V Norm_20 Average", "setting": "level 20 vs 0", "value": 1.099}, {"measurement": "JNK_pT183_Y185.R.C Norm_20 Average", "setting": "level 20 vs 0", "value": 1.003}, {"measurement": "Jagged1.R.V Norm_20 Average", "setting": "level 20 vs 0", "value": 1.028}, {"measurement": "KAP1.R.V Norm_20 Average", "setting": "level 20 vs 0", "value": 1.259}, {"measurement": "KEAP1.R.V Norm_20 Average", "setting": "level 20 vs 0", "value": 1.000}, {"measurement": "LAD1.R.V Norm_20 Average", "setting": "level 20 vs 0", "value": 0.964}, {"measurement": "LC3A.B.R.C Norm_20 Average", "setting": "level 20 vs 0", "value": 1.242}, {"measurement": "LCN2.R.V Norm_20 Average", "setting": "level 20 vs 0", "value": 1.622}, {"measurement": "LDHA.R.C Norm_20 Average", "setting": "level 20 vs 0", "value": 1.558}, {"measurement": "LRP6_pS1490.R.V Norm_20 Average", "setting": "level 20 vs 0", "value": 1.024}, {"measurement": "Lck.R.V Norm_20 Average", "setting": "level 20 vs 0", "value": 1.304}, {"measurement": "Lyn.R.V Norm_20 Average", "setting": "level 20 vs 0", "value": 1.028}, {"measurement": "MACC1.R.V Norm_20 Average", "setting": "level 20 vs 0", "value": 0.935}, {"measurement": "MAPK_pT202_Y204.R.C Norm_20 Average", "setting": "level 20 vs 0", "value": 0.567}, {"measurement": "MCT4.R.V Norm_20 Average", "setting": "level 20 vs 0", "value": 0.993}, {"measurement": "MDM2_pS166.R.V Norm_20 Average", "setting": "level 20 vs 0", "value": 1.398}, {"measurement": "MEK1.R.V Norm_20 Average", "setting": "level 20 vs 0", "value": 1.549}, {"measurement": "MEK1_pS217_S221.R.V Norm_20 Average", "setting": "level 20 vs 0", "value": 0.977}, {"measurement": "MEK2.R.V Norm_20 Average", "setting": "level 20 vs 0", "value": 1.030}, {"measurement": "MERIT40.R.C Norm_20 Average", "setting": "level 20 vs 0", "value": 0.913}, {"measurement": "MERIT40_pS29.R.V Norm_20 Average", "setting": "level 20 vs 0", "value": 1.026}, {"measurement": "METTL3.R.V Norm_20 Average", "setting": "level 20 vs 0", "value": 1.246}, {"measurement": "MIF.R.C Norm_20 Average", "setting": "level 20 vs 0", "value": 0.892}, {"measurement": "MIG6.R.V Norm_20 Average", "setting": "level 20 vs 0", "value": 0.907}, {"measurement": "MLH1.M.V Norm_20 Average", "setting": "level 20 vs 0", "value": 0.889}, {"measurement": "MLKL.R.V Norm_20 Average", "setting": "level 20 vs 0", "value": 0.854}, {"measurement": "MMP2.R.V Norm_20 Average", "setting": "level 20 vs 0", "value": 0.934}, {"measurement": "MMP14.R.V Norm_20 Average", "setting": "level 20 vs 0", "value": 1.655}, {"measurement": "MR1.M.C Norm_20 Average", "setting": "level 20 vs 0", "value": 0.987}, {"measurement": "MRAP.R.C Norm_20 Average", "setting": "level 20 vs 0", "value": 1.110}, {"measurement": "MSH2.R.C Norm_20 Average", "setting": "level 20 vs 0", "value": 0.939}, {"measurement": "MSH6.R.C Norm_20 Average", "setting": "level 20 vs 0", "value": 1.329}, {"measurement": "MSI2.R.C Norm_20 Average", "setting": "level 20 vs 0", "value": 1.187}, {"measurement": "MTCO1.M.V Norm_20 Average", "setting": "level 20 vs 0", "value": 1.135}, {"measurement": "MTSS1.M.C Norm_20 Average", "setting": "level 20 vs 0", "value": 0.937}, {"measurement": "Mcl.1.R.V Norm_20 Average", "setting": "level 20 vs 0", "value": 0.754}, {"measurement": "MelanA.R.C Norm_20 Average", "setting": "level 20 vs 0", "value": 1.025}, {"measurement": "Melanoma.gp100.R.C Norm_20 Average", "setting": "level 20 vs 0", "value": 1.012}]}
